According to ChEMBL document CHEMBL1129211, “Design and synthesis of sialyl Lex mimetics based on carbocyclic scaffolds derived from () quinic acid” (Bioorg Med Chem Lett, 1997):

Columns and labels:
[1] = biological target: T1, E-selectin (Homo sapiens) (UniProt P16581); assay: Tested for binding activity against Selectin E of the compound; inactive
T1 sequence (whole entry): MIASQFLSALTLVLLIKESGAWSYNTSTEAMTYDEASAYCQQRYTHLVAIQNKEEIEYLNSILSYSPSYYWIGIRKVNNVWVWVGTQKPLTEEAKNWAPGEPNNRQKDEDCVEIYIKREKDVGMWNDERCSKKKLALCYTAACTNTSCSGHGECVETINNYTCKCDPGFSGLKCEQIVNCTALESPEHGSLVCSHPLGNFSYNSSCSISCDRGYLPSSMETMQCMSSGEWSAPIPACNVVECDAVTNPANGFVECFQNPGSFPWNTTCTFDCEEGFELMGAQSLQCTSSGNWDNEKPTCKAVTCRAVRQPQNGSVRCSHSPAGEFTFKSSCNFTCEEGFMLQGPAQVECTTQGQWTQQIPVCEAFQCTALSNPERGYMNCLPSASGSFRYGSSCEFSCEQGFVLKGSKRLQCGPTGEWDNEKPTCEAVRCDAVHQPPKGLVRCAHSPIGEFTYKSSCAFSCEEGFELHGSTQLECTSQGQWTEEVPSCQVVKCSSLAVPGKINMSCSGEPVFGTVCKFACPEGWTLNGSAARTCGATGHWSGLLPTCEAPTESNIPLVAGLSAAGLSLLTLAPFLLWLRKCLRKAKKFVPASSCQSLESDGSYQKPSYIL

[2] = biological target: T1, E-selectin (Homo sapiens); assay: Tested for binding activity against Selectin E of the compound

Activity [1] [mM]	Activity [2] [mM]	Compound
> 10	–	CC1OC(OC(C)(C)COCC2(O)CCC(O)C(OCC(=O)O)C2O)C(O)C(O)C1O (centres undefined)
> 10	–	CC1OC(OC(C)(C)COCC2CC(O)C(O)C(OCC(=O)O)C2)C(O)C(O)C1O (centres undefined)
–	1	CC(=O)N[C@H]1[C@H]([C@H](O)[C@H](O)CO)O[C@@](O[C@@H]2[C@H](O)[C@H](O[C@@H]3C[C@](O)(CO)C[C@H](O)[C@H]3O[C@@H]3O[C@@H](C)[C@@H](O)[C@H](O)[C@@H]3O)O[C@@H](CO)[C@@H]2O)(C(=O)O)C[C@H]1O
> 10	–	C[C@@H]1O[C@@H](O[C@@H]2[C@@H](O)C[C@@](O)(CO)C[C@H]2O[C@@H]2O[C@@H](CO)[C@H](O)[C@H](OCC(=O)O)[C@@H]2O)[C@@H](O)[C@@H](O)[C@@H]1O
